We go through 9 compounds from patent US7625894B2, “Pyrrolo[2,3-d]Pyrimidines as Protein Tyrosine Kinase Inhibitors” (Novartis AG, priority 2004, dated 2009).

One assay has as its target EGF-R (HER-1) (Homo sapiens, UniProt P00533). Kind of assay: Inhibition of the tyrosine kinase activity of EGF-R (HER-1). Type of assay: biochemical. Further details: dose or concentration left out as unconfirmed.
The target in a further assay is T1, c-Raf-1 (Homo sapiens, UniProt P04049).
T1 construct: made in house; host or cells: Sf21 insect cells, triple baculovirus infection (GST-c-Raf-1, v-Ras, v-Src)
Kind of assay: c-Raf-1 protein kinase assay. The assay is classed as biochemical. Further details: dose or concentration left out as unconfirmed. On the procedure: c-Raf-1 protein kinase assay: Recombinant c-Raf-1 protein is obtained by triple infection of Sf21 cells with GST-c-Raf-1 recombinant baculovirus together with v-Src and v-Ras recombinant baculoviruses that are required for active c-Raf-1 kinase production (Williams et al., PNAS 1992; 89:2922-6). Active Ras (v-Ras) is required to recruit c-Raf-1 to the cell membrane and v-Src to phosphorylate c-Raf-1 to fully activate it. Cells are seeded at 2.5×10^7 cells per 150 mm dish and allowed to attach to a 150 mm dish for 1 hr at RT. Media (SF900II containing 10% FBS) is aspirated and recombinant baculovirus GST-c-Raf-1, v-Ras and v-Src are added at MOI of 3.0, 2.5 and 2.5, respectively, in a total volume of 4-5 mL. Cells are incubated for 1 hr at RT and then 15 mL of medium is added. Infected cells are incubated for 48-72 hr at 27° C. Infected Sf21 cells are scraped and collected into a 50 mL tube and centrifuged for 10 min at 4° C. at 1100 g in a Sorvall centrifuge. The cell pellet is washed once with ice cold PBS and lysed with 0.6 mL lysis buffer per 2.5×10^7 cells. Complete lysis of cells is achieved after 10 min on ice with occasional pipetting. The cell lysates are centrifuged for 10 min at 4° C. at 14,500 g in a Sorvall centrifuge with SS-34 rotor and the supernatant is transferred to a fresh tube and stored at −80° C. c-Raf-1 is purified from cell lysates using 100 μL of packed glutathione-sepharose 4B beads equilibrated in ice cold PBS per 2.5×10^7 cells. GST-c-Raf-1 is allowed to bind to the beads at 4° C. for 1 hr with rocking. Bound GST-c-Raf-1 with beads is transferred to a column. The column is washed once with lysis buffer and twice with ice cold Tris buffered saline. Ice cold elution buffer is added and column flow is stopped to allow the free glutathione to disrupt the interaction of GST-c-Raf-1 with glutathione sepharose beads. Fractions (1 mL) are collected into pre-chilled tubes. Each tube contains 10% glycerol (final concentration) to maintain kinase activity during freeze thaw cycles. Purified fractions of GST-c-Raf-1 kinase protein are stored at −80° C.
IκB is used as substrate for the c-Raf-1 kinase. IκB is expressed in bacteria as a His-tagged protein BL21. LysS bacteria containing the IκB plasmid are grown to an OD600 of 0.6 in LB medium, then induced to express the IκB with IPTG (final concentration of 1 mM) for 3 hrs at 37° C. and then bacteria are lysed by sonication (microtip limit setting for 3 times at 1 min each in sonication buffer [50 mM Tris pH 8.0, 1 mM DTT, 1 mM EDTA] and centrifuged at 10,000 g for 15 min. The supernatant is mixed with ammonium sulfate to give a final concentration of 30%. This mixture is rocked for 15 min at 4 C then spun at 10,000 g for 15 min. The pellet is resuspended in binding buffer (Novagen) containing 10 mM BSA. This solution is applied to Ni-agarose (Novagen) and washed according to the Novagen manual. IκB is eluted from the column using elution buffer (0.4 M imidazole, 0.2 M NaCl, 8 mM Tris pH 7.9). Fractions containing protein are dialysed in 50 mM Tris pH 8, 1 mM DTT. The activity of c-Raf-1 protein kinase is assayed in the presence or absence of inhibitors, by measuring the incorporation of ^33P from [γ^33P] ATP into IκB. The assay is carried out in 96-well plates at ambient temperature for 60 min. It contains (total volume of 30 μL): c-Raf-1 kinase (400 ng), 25 mM Tris.HCl, pH 7.5, 5 mM MgCl2, 5 mM MnCl2, 10 μM Na3VO4, 1 mM DTT and 0.3 μCi/assay [γ^33P]-ATP (10 μM ATP) using 600 ng IκB in the presence of 1% DMSO. Reactions are terminated by adding 10 μL of 250 mM EDTA and 30 μL of the reaction mixture is transferred onto Immobilon-PVDF membrane (Millipore, Bedford, Mass., USA) previously soaked for 5 min with methanol, rinsed with water, then soaked for 5 min with 0.5% H3PO4 and mounted on vacuum manifold with disconnected vacuum source. After spotting all samples, vacuum is connected and each well rinsed with 200 μL 0.5% H3PO4. […]

The target of another assay is T2, VEGF receptor (KDR) (Homo sapiens, UniProt P35968).
T2 construct: expressed in transfected cells
Kind of assay: Inhibition of VEGF-induced KDR-receptor autophosphorylation in transfected CHO cells. Type of assay: cell-based. On the procedure: The inhibition of VEGF-induced KDR-receptor autophosphorylation can be confirmed with a further in vitro experiment in cells: transfected CHO cells, which permanently express human VEGF receptor (KDR), are seeded in complete culture medium with 10% fetal calf serum (FCS) in 6-well cell-culture plates and incubated at 37° C. under 5% CO2 until they show about 80% confluency. The compounds to be tested are then diluted in culture medium (without FCS, with 0.1% bovine serum albumin) and added to the cells. (Controls comprise medium without test compounds). After two hours of incubation at 37° C., recombinant VEGF is added; the final VEGF concentration is 20 ng/mL). After a further five minute incubation at 37° C., the cells are washed twice with ice-cold PBS (phosphate-buffered saline) and immediately lysed in 100 μL lysis buffer per well. The lysates are then centrifuged to remove the cell nuclei, and the protein concentrations of the supernatants are determined using a commercial protein assay (BIORAD). The lysates can then either be immediately used or, if necessary, stored at −20° C.
A sandwich ELISA is carried out to measure the KDR-receptor phosphorylation: a monoclonal antibody to KDR (for example Mab 1495.12.14) is immobilized on black ELISA plates (OptiPlate™ HTRF-96 from Packard). The plates are then washed and the remaining free protein-binding sites are saturated with 1% BSA in PBS. The cell lysates (20 μg protein per well) are then incubated in these plates overnight at 4° C. together with an anti-phosphotyrosine antibody coupled with alkaline phosphatase (PY20: AP from Transduction Laboratories). […] The luminescence is measured in a Packard Top Count Microplate Scintillation Counter (Top Count). The difference between the signal of the positive control (stimulated with VEGF) and that of the negative control (not stimulated with VEGF) corresponds to VEGF-induced KDR-receptor phosphorylation (=100%). The activity of the tested substances is calculated as % inhibition of VEGF-induced KDR-receptor phosphorylation, wherein the concentration of substance that induces half the maximum inhibition is defined as the IC50 (effective dose for 50% inhibition).

T2 sequence (P35968 20-1356): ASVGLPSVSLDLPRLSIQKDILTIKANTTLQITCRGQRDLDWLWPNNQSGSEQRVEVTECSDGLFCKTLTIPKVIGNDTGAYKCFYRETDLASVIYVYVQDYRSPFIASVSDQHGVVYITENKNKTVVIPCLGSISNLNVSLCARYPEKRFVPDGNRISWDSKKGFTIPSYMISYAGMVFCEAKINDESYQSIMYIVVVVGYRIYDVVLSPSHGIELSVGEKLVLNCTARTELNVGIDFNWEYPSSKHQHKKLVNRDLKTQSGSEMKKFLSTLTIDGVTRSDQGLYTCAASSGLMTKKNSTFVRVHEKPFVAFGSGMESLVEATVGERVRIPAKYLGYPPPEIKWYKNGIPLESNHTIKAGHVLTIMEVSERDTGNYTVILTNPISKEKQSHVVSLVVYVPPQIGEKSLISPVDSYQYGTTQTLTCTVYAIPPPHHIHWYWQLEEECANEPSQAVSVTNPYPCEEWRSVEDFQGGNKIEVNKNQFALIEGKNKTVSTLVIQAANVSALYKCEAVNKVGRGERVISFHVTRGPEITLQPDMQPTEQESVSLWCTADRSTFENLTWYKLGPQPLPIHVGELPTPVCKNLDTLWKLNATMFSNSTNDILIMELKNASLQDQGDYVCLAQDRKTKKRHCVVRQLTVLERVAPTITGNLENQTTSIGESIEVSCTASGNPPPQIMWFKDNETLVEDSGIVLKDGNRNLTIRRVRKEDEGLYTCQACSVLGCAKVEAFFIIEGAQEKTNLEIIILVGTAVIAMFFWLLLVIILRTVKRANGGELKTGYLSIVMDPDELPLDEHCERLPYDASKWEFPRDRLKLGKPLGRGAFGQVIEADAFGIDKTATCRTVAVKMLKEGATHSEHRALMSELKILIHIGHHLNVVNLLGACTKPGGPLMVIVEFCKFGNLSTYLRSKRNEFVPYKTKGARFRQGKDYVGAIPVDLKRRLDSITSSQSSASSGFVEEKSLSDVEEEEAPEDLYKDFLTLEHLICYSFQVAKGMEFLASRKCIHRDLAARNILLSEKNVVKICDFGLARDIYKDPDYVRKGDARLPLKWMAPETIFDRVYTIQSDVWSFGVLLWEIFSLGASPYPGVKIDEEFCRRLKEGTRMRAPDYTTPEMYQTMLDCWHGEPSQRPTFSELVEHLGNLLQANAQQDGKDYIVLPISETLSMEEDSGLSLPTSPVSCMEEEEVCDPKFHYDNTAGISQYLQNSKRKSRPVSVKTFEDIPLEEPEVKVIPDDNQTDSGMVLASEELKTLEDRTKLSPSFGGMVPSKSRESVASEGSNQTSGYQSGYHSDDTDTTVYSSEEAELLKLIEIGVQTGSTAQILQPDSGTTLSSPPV

For the compound `CN(C)c1ncnc2[nH]c(-c3ccc(Cn4ccnc4)cc3)cc12` [Example 24, [6-(4-Imidazol-1-ylmethyl-phenyl)-7H-pyrrolo[2,3-d]pyrimidin-4-yl]-dimethylamine], at EGF-R (HER-1), the “HER-1/ %-inh. [%]” value was determined as 93%. Also, the “c-Raf-1/ %-inh. [%]” value at c-Raf-1 is reported as 100%. The “KDR (% inh)” value at VEGF receptor (KDR) is reported as 75%.

On to `CN(C)c1ncnc2[nH]c(-c3ccc(Cc4ccc[nH]4)cc3)cc12` [Example 25, Dimethyl-{6-[4-(1H-pyrrol-2-ylmethyl)-phenyl]-7H-pyrrolo[2,3-d]pyrimidin-4-yl}-amine], for which, at EGF-R (HER-1), the “HER-1/ %-inh. [%]” value stood at 57%. Further, at c-Raf-1, the “c-Raf-1/ %-inh. [%]” value came to 96%. For the same compound, at VEGF receptor (KDR), the “KDR (% inh)” value is given as 50%.

For `CN(C)c1ncnc2[nH]c(-c3ccc(Cn4cnnn4)cc3)cc12` [Example 27, Dimethyl-[6-(4-tetrazol-1-ylmethyl-phenyl)-7H-pyrrolo[2,3-d]pyrimidin-4-yl]-amine], the “HER-1/ %-inh. [%]” value on EGF-R (HER-1) amounted to 83%. At c-Raf-1, the “c-Raf-1/ %-inh. [%]” value was 100%. At VEGF receptor (KDR), the “KDR (% inh)” value stood at 58%.

For the compound `CN(C)c1ncnc2[nH]c(-c3ccc(CNCCCO)cc3)cc12` [Example 28, 3-[4-(4-Dimethylamino-7H-pyrrolo[2,3-d]pyrimidin-6-yl)-benzylamino]-propan-1-ol], on EGF-R (HER-1), the “HER-1/ %-inh. [%]” value amounted to 85%. Further, the “c-Raf-1/ %-inh. [%]” value at c-Raf-1 came out at 80%. At VEGF receptor (KDR), the “KDR (% inh)” value was determined as 76%.

`COCCN(C)Cc1ccc(-c2cc3c(N(C)C)ncnc3[nH]2)cc1` [Example 29, [6-(4-{[(2-Methoxy-ethyl)-methyl-amino]-methyl}-phenyl)-7H-pyrrolo[2,3-d]pyrimidin-4-yl]-dimethyl-amine]: the “HER-1/ %-inh. [%]” value on EGF-R (HER-1) was determined as 79%. For the same compound, on c-Raf-1, the “c-Raf-1/ %-inh. [%]” value is given as 77%. The “KDR (% inh)” value on VEGF receptor (KDR) came out at 76%.

For `CCC(O)(CC)c1ccc(-c2cc3c(NCCCn4cccc4)ncnc3[nH]2)cc1` [Example 33, 3-{4-[4-(3-Pyrrol-1-yl-propylamino)-7H-pyrrolo[2,3-d]pyrimidin-6-yl]-phenyl}-pentan-3-ol], the “HER-1/ %-inh. [%]” value on EGF-R (HER-1) turned out to be 98%. For the same compound, at c-Raf-1, the “c-Raf-1/ %-inh. [%]” value came to 48%. In addition, the “KDR (% inh)” value at VEGF receptor (KDR) was 84%.

Take `CN(C)c1ncnc2[nH]c(-c3ccc(C(C)(C)O)cc3)cc12` [Example 34, 2-[4-(4-Dimethylamino-7H-pyrrolo[2,3-d]pyrimidin-6-yl)-phenyl]-propan-2-ol]: the “HER-1/ %-inh. [%]” value on EGF-R (HER-1) came to 54%. Moreover, the “c-Raf-1/ %-inh. [%]” value on c-Raf-1 was 50%. Further, the “KDR (% inh)” value at VEGF receptor (KDR) is 66%.

Regarding `CNc1ncnc2[nH]c(-c3ccc(C(C)(C)O)cc3)cc12` [Example 35, 2-[4-(4-Methylamino-7H-pyrrolo[2,3-d]pyrimidin-6-yl)-phenyl]-propan-2-ol], the “HER-1/ %-inh. [%]” value on EGF-R (HER-1) is reported as 90%. Moreover, the “c-Raf-1/ %-inh. [%]” value at c-Raf-1 turned out to be 44%. Further, the “KDR (% inh)” value on VEGF receptor (KDR) was determined as 76%.

Turning to “[4-(4-Methylamino-7H-pyrrolo[2,3-d]pyrimidin-6-yl)-phenyl]-morpholin-4-yl-methanone [Example 2]”, at EGF-R (HER-1), the “HER-1/ %-inh. [%]” value is reported as 78%. Besides, the “c-Raf-1/ %-inh. [%]” value on c-Raf-1 is 56%. For the same compound, on VEGF receptor (KDR), the “KDR (% inh)” value turned out to be 77%.
